pEC50: −log10 of the molar value.
Target: T1, GABAB receptor (Homo sapiens, UniProt O75899+Q9UBS5)
T1 construct: expressed in transfected cells; host or cells: CHO-K1 (membranes)
Assay: [35S]-GTPγS binding assay with GABA in the presence or absence of PAM
Type: biochemical
Conditions: log EC50 for GABA plotted against log concentration of the positive allosteric modulator; read-out: EC50 (potency of the positive allosteric modulator)
Description: [^35S]-GTPγS binding assays were performed at 30° C. for 45 min in membrane buffer (100 mM NaCl, 5 mM MgCl2, 1 mM EDTA, 50 mM HEPES, pH 7.4) containing 0.025 μg/μl of membrane protein (prepared from the cell lines described above) with 0.01% bovine serum albumin (fatty acid free), 10 μM GDP, 100 μM DTT and 0.53 nM [^35S]-GTPγS (Amersham-Pharmacia Biotech) in a final volume of 200 μl. Non-specific binding was determined in the presence of 20 μM GTPγS. The reaction was started by the addition of GABA at concentration between 1 mM and 0.1 mM in the presence or absence of the required concentration of PAM. The reaction was terminated by addition of ice-cold wash buffer (50 mM Tris-HCl, 5 mM MgCl2, 50 mM NaCl, pH 7.4) followed by rapid filtration under vacuum through Printed Filtermat A glass fiber filters (Wallac) (0.05% PEI treated) using a Micro 96 Harvester (Skatron Instruments). The filters were dried for 30 min at 50° C., then a paraffin scintillant pad was melted onto the filters and the bound radioactivity was determined using a 1450 Microbeta Trilux (Wallac) scintillation counter.
GABA dose-response curves in the presence and absence of test compounds were constructed using the 4-parameter logistic equation, y=ymax+((ymin−ymax)/1+(x/C)^D) where C=EC50 and D=slope factor.
The potency of PAM in GTPγS assays was determined by plotting the log EC50 for GABA against the log concentration of the positive allosteric modulator in the presence of which the measurement was performed.

T1 sequence (Q9UBS5 15-961 limits assumed): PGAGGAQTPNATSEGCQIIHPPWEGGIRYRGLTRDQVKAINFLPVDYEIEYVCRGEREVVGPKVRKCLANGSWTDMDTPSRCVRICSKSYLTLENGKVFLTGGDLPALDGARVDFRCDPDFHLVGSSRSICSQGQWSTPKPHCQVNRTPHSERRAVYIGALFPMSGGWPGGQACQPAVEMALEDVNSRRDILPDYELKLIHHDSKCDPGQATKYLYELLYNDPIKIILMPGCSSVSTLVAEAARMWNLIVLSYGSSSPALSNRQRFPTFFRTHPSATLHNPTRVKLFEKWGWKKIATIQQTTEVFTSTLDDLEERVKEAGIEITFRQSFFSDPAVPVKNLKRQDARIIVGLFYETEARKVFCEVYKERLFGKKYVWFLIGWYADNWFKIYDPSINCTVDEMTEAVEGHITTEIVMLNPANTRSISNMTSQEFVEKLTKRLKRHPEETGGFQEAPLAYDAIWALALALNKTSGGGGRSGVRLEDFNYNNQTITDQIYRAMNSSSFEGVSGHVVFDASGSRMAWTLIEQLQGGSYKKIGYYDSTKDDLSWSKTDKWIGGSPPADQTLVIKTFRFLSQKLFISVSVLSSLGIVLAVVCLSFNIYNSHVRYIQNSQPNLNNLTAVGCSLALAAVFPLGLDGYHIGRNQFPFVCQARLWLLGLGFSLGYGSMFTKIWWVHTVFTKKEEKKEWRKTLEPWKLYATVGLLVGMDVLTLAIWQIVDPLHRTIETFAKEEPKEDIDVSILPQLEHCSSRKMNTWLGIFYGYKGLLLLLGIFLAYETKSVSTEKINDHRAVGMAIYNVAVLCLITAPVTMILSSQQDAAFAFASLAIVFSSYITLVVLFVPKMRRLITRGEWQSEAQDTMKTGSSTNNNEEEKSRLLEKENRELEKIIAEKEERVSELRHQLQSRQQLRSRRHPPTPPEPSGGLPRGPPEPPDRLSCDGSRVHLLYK
T1 sequence (O75899 42-941): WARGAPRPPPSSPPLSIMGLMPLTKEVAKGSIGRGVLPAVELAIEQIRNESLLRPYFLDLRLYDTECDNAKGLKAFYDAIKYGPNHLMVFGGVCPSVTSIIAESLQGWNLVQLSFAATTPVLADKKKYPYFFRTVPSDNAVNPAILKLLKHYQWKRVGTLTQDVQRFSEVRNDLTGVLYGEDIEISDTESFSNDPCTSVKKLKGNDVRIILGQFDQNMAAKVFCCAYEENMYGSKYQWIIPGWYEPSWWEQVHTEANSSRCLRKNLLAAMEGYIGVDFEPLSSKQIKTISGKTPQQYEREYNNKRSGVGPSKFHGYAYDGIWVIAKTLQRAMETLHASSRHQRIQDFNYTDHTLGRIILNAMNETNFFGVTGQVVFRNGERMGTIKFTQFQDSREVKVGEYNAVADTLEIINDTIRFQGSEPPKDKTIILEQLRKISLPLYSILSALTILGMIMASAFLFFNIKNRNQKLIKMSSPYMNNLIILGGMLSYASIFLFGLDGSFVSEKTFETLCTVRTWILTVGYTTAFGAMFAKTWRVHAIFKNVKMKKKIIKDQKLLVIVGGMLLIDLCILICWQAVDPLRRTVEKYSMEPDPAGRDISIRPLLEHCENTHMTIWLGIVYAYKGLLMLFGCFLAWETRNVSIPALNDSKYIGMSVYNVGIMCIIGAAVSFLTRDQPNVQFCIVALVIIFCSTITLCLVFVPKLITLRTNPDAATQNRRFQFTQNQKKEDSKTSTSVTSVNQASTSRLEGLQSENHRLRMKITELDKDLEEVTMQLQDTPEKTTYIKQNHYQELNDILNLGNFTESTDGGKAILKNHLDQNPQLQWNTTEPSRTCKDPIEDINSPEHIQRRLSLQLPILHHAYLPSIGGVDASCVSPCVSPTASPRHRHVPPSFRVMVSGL

Row | SMILES | pEC50
1 | COCC(C)(C)OC(=O)c1c(NC(=O)C2COc3ccccc3O2)nc(OC)n1-c1ccccc1 (stereo not shown) [2-methoxy-1,1-dimethylethyl 4-[(2,3-dihydro-1,4-benzodioxin-2-ylcarbonyl)amino]-2-methoxy-1-phenyl-1H-imidazole-5-carboxylate] | 6.52
2 | CCCCC(C)(C)OC(=O)c1c(NC(=O)c2ccc(Cl)cc2)nc(SC)n1-c1ccccc1 [1,1-dimethylpentyl 4-[(4-chlorobenzoyl)amino]-2-(methylthio)-1-phenyl-1H-imidazole-5-carboxylate] | 6.52
3 | CCOC(=O)c1c(NC(=O)C(CC)c2ccccc2)nc(SC)n1-c1ccccc1 (stereo not shown) [1H-imidazole-5-carboxylic acid, 2-(methylthio)-4-[(1-oxo-2-phenylbutyl)amino]-1-phenyl-, ethyl ester] | 6.22
4 | CCOC(=O)c1c(NC(=O)c2ccc(Cl)c(Cl)c2)nc(SC)n1Cc1ccccc1 [1H-imidazole-5-carboxylic acid, 4-[(3,4-dichlorobenzoyl)amino]-2-(methylthio)-1-(phenylmethyl)-, ethyl ester] | 5.64

From patent publication US7718686B2, “Imidazole variants as modulators of GABA receptor for the treatment of GI disorders” (AstraZeneca AB, priority 2004, dated 2010)
